Data published in patent publication US7816522B2, “Triazolone derivatives” (Eisai Co., Ltd., priority 2006, dated 2010).

target: T1, human clotting factor VIIa (Homo sapiens, UniProt P08709); experiment: Inhibitory activity against clotting factor VIIa (chromogenic substrate Spectrozyme FVIIa, TF/Factor VIIa enzyme solution); format: biochemical; conditions: human Factor VIIa 5 nmol/L with human TF 10 nmol/L, room temperature 40 minutes, 405 nm
T1 construct: a human clotting factor VIIa (hereinafter, “Factor VIIa”) purified sample; purchased Enzyme Research Laboratories HFVIIa
Summary of the method: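 Human Factor VIIa (5 nmol/L) with human TF (10 nmol/L) in Tris-BSA buffer pH 7.4 containing 15 mmol/L CaCl2 and cephalin, with Spectrozyme FVIIa substrate. Reaction 40 min at room temperature; 4-nitroanilide read at 405 nm. IC50 by non-linear regression over 100 μmol/L–0.1 nmol/L.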

T1 sequence (P08709 213-466 limits assumed): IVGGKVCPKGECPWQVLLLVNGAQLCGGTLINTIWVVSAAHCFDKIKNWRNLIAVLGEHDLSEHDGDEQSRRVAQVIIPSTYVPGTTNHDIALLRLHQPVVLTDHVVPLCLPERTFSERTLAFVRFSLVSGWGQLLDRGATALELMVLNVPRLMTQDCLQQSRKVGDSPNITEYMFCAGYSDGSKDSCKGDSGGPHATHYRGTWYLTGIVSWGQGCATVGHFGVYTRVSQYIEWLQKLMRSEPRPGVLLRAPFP
T1 sequence (P08709 61-212 limits assumed): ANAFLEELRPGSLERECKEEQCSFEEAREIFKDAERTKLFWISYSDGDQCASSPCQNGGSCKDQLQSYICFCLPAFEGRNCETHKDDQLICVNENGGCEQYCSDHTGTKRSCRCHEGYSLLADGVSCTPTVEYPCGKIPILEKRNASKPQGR
T1 sequence (P13726 33-295 partner): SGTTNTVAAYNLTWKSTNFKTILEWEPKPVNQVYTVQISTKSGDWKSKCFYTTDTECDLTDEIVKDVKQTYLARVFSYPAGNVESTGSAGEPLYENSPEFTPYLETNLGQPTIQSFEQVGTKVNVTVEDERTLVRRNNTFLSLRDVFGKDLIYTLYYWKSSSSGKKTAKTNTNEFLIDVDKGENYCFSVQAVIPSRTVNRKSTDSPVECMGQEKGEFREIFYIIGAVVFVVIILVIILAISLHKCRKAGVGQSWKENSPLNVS

Row | SMILES | IC50 [nM]
1 | COc1cc(C(Nc2ccc(C(=N)N)cc2)c2nn(-c3ncsc3C(=O)O)c(=O)[nH]2)cc(OCCO)c1OC (racemic) [Example 233, (R) and (S)-4-(3-{(4-Carbamimidoylphenylamino)-[3-(2-hydroxyethoxy)-4,5-dimethoxyphenyl]methyl}-5-oxo-4,5-dihydro-[1,2,4]triazol-1-yl)thiazole-5-carboxylic acid] | 23.8
2 | COc1cc(OC)c(F)c(C(Nc2ccc(C(=N)N)cc2)c2nn(-c3cccc[n+]3[O-])c(=O)[nH]2)c1 (single isomer, unassigned) [Example 2] | 9.4
3 | COc1cc(C(Nc2ccc(C(=N)N)cc2)c2nn(-c3ncsc3C(=O)O)c(=O)[nH]2)cc2c1OCCCO2 (single isomer, unassigned) [Example 180, 4-{3-[(4-carbamimidoylphenylamino)-(9-methoxy-3,4-dihydro-2H-benzo[b][1,4]dioxepin-7-yl)methyl]-5-oxo-4,5-dihydro-[1,2,4]triazol-1-yl}thiazole-5-carboxylic acid] | 10.1
4 | CCOc1cc(C(Nc2ccc(C(=N)N)cc2)c2nn(-c3ncsc3C(=O)O)c(=O)[nH]2)cnc1OC (single isomer, unassigned) [Example 185, 4-{3-[(4-Carbamimidoylphenylamino)-(5-ethoxy-6-methoxypyridin-3-yl)methyl]-5-oxo-4,5-dihydro-[1,2,4]triazol-1-yl}thiazole-5-carboxylic acid] | 11.6
5 | COc1cc(F)c(C(Nc2ccc(C(=N)N)cc2)c2nn(-c3nc[nH]c3C(=O)O)c(=O)[nH]2)cc1OC (single isomer, unassigned) [Example 187, 5-{3-[(4-Carbamimidoylphenylamino)-(2-fluoro-4,5-dimethoxyphenyl)methyl]-5-oxo-4,5-dihydro-[1,2,4]triazol-1-yl}-3H-imidazole-4-carboxylic acid] | 9
6 | COc1cc(C(Nc2ccc(C(=N)N)cc2)c2nn(-c3ncsc3C(=O)O)c(=O)[nH]2)c(F)c2c1OCCO2 (single isomer, unassigned) [Example 188, 4-{3-[(4-Carbamimidoylphenylamino)-(5-fluoro-8-methoxy-2,3-dihydro-benzo[1,4]dioxin-6-yl)-methyl]-5-oxo-4,5-dihydro-[1,2,4]triazol-1-yl}thiazole-5-carboxylic acid] | 22.4

Now from value to compound:

Row | IC50 [nM] | SMILES
7 | 11.1 | COc1cc(C(Nc2ccc(C(=N)N)cc2)c2nn(-c3ncccn3)c(=O)[nH]2)cnc1OC (racemic) [Example 234, 4-{[(5,6-Dimethoxypyridin-3-yl)-(5-oxo-1-pyrimidin-2-yl-4,5-dihydro-1H-[1,2,4]triazol-3-yl)methyl]amino}benzamidine]
8 | 3.8 | CCOc1cc(C(Nc2ccc(C(=N)N)cc2)c2nn(-c3ccsc3C(=O)O)c(=O)[nH]2)cnc1OC (racemic) [Example 235, 3-{3-[(4-Carbamimidoylphenylamino)-(5-ethoxy-6-methoxypyridin-3-yl)methyl]-5-oxo-4,5-dihydro-[1,2,4]triazol-1-yl}thiophene-2-carboxylic acid]
9 | 11.8 | COc1cc(F)c(C(Nc2ccc(C(=N)N)cc2F)c2nn(-c3ncccn3)c(=O)[nH]2)cc1OC (racemic) [Example 236, 3-Fluoro-4-{[(R) and (S)-(2-fluoro-4,5-dimethoxyphenyl)-(5-oxo-1-pyrimidin-2-yl-4,5-dihydro-1H-[1,2,4]triazol-3-yl)methyl]amino}benzamidine acetate]
10 | 23.5 | COc1cc(C(Nc2ccc(C(=N)N)cc2)c2nn(-c3ccsc3C(=O)O)c(=O)[nH]2)c(F)cc1OCCO (racemic) [Example 237, 3-(3-{(4-Carbamimidoylphenylamino)-[2-fluoro-4-(2-hydroxyethoxy)-5-methoxyphenyl]methyl}-5-oxo-4,5-dihydro-[1,2,4]triazol-1-yl)thiophene-2-carboxylic acid]
